Assay results: publication PMC7549214 (Malaria Journal, 2020)
Where two headings read alike, the source gives them in different places.

Legend:
in vitro [1] = format: in vitro ADME; conditions: dog, plasma
[2] = Repeated dose 14-day toxicity study;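 further: rats dosed once daily for 14 days, test item in Tween 80 plus methylcellulose vehicle at 10 mL/kg bw, compared against vehicle-treated G1 controls by one-way ANOVA with Dunnett test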
Procedure: The animal grouping was done by the method of body weight stratification and randomization. The animals procured for the study were weighed and grouped into body weight ranges. […] Tween 80 (0.1% (v/v)) + methylcellulose (0.5% (w/v)) was used as a vehicle and the test item was dosed at a dose volume of 10 mL/kg bw. The animals were dosed once a day for a period of 14 consecutive days. The test item was administered at concentrations as mentioned in the Table for G2, G3, G4, G5 groups whereas vehicle was administered to G1 group (vehicle control) at the volume of 10 mL/kg body weight. […] On days 2 to 13, animals were dosed in the fed state. During the study, observations were made for clinical signs and mortality, body weights, gross necropsy and organ weights. The data were subjected to statistical analyses using GraphPad Prism version 5.00, GraphPad Software. One way ANOVA with Dunnets post-test were done for different treatment groups compared with the control group data.

[3] = tested on: human HDAC (HeLa nuclear extract); test: HDAC activity screening, fluorescence-based, HeLa nuclear extract; format: biochemical
Procedure: HeLa nuclear extract was used as the enzyme source. […] The assay was performed in 96-well black microplates, and the total volume of the assay was set at 100 µl. […] The enzyme mixture was prepared by adding […] of the diluted enzyme (HeLa nuclear extract) to […] of HDAC buffer. From the enzyme mixture, 40 µl was taken and mixed with 10 µl of test compound (final concentration from 0.01 to 10 µM) or vehicle (control). The final mixture (50 µl) was added to each well which was then pre-incubated at 37 °C for 10 min. The HDAC reaction was started by adding 50 µl of HDAC substrate: […] The plate was incubated at 37 °C for 45 min. Trypsin stop solution (50 µl) was added to the well, and the plate was further incubated at 37 °C for 15 min to stop the reaction. The release of AMC was monitored by measuring the fluorescence at an excitation wavelength of 360 nm and an emission wavelength of 460 nm. Buffer and substrate alone served as blank.

PfHDAC1 = target: T1, PfHDAC1 (Plasmodium falciparum, UniProt Q7K6A1); test: PfHDAC1 fluorescent activity assay; format: biochemical
T1 construct: His-tag; FLAG-tag; purchased BPS Bioscience
T1 sequence (Q7K6A1 1-449): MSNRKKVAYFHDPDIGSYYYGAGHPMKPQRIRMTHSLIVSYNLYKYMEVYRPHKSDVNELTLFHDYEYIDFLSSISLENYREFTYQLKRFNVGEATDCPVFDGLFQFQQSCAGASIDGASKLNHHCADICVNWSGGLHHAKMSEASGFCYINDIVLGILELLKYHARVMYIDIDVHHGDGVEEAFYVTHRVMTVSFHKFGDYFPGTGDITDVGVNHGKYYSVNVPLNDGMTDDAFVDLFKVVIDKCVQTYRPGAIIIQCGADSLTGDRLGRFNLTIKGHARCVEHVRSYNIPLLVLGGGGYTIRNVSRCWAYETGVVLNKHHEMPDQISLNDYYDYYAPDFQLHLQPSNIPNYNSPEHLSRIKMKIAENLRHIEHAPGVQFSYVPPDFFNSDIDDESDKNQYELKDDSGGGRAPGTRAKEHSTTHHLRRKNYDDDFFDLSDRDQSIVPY

[4] = tested on: cytochrome P450 (CYP) isoforms (any of those tested); test: CYP inhibition, isoforms tested (summary); format: in vitro ADME; conditions: any of the CYP isoforms tested
CYP2C19 = CYP2C19 (Homo sapiens, UniProt P33261); test: CYP inhibition; format: in vitro ADME; conditions: read-out: CYP inhibition IC50, CYP 2C19
Chain of CYP2C19 (P33261 whole entry, species assumed): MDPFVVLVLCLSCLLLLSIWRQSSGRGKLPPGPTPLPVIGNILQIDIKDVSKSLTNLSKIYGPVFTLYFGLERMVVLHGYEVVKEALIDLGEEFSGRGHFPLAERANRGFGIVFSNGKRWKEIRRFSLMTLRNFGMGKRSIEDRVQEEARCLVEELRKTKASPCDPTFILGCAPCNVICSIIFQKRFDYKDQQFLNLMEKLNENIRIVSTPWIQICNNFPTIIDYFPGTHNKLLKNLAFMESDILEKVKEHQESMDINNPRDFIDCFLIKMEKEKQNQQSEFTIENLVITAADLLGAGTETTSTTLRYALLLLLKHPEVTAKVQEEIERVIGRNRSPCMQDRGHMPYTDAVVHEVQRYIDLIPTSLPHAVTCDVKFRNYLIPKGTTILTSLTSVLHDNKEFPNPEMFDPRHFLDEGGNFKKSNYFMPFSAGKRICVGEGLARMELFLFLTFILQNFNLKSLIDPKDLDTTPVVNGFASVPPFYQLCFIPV

CYP1A2 = CYP1A2 (Homo sapiens, UniProt P05177); test: CYP inhibition; format: in vitro ADME
Chain of CYP1A2 (P05177 whole entry, species assumed): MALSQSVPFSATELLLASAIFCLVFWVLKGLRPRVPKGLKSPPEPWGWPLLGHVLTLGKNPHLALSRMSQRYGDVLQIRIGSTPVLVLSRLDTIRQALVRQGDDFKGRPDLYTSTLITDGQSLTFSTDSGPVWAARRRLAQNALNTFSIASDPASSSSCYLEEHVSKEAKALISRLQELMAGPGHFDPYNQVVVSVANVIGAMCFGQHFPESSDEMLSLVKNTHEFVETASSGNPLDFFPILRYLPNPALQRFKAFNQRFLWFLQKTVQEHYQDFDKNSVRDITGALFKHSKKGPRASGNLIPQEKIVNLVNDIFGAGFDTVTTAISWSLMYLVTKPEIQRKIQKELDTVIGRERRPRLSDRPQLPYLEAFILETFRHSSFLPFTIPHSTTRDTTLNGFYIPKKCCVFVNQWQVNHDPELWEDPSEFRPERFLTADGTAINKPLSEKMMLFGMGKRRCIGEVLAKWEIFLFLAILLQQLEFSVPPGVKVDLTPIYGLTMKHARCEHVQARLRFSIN

Microsomal stability = format: in vitro ADME, human; conditions: HLM, Test Conc. 10 µM
Plasma protein binding [5] = format: in vitro ADME; conditions: rat, read-out: Plasma protein binding (% bound)
male gametocytes = test: Male gametocyte functional viability assay; format: cell-based; conditions: Plasmodium falciparum
Procedure: Gametocyte cultures were tested for functional viability and maturity after 14 days. Testing functional viability was done by quantifying male gametocyte formation, which was carried out by withdrawing 200 μl of culture. Following this, culture was centrifuged, and the pellet was resuspended in 5 μl ookinete medium (RPMI medium with 25 mM HEPES, 50 mg/l hypoxanthine, 2 g/l sodium bicarbonate, 100 μM xanthurenic acid, and 10% A^+ human serum). The culture was observed under a microscope. […] The plates were then incubated at 37 °C for 24 h. Gamete formation was induced on day 15 and observed under the microscope following the method described by Ruecker et al.. The assay was performed using four independent biological replicates.

Plasma protein binding [6] = format: in vitro ADME; conditions: mouse, read-out: Plasma protein binding (% bound)
in vitro [7] = format: in vitro ADME; conditions: mouse, plasma
CYP 3A4 = CYP 3A4 (Homo sapiens, UniProt P08684); test: CYP inhibition; format: in vitro ADME
Chain of CYP 3A4 (P08684 whole entry, species assumed): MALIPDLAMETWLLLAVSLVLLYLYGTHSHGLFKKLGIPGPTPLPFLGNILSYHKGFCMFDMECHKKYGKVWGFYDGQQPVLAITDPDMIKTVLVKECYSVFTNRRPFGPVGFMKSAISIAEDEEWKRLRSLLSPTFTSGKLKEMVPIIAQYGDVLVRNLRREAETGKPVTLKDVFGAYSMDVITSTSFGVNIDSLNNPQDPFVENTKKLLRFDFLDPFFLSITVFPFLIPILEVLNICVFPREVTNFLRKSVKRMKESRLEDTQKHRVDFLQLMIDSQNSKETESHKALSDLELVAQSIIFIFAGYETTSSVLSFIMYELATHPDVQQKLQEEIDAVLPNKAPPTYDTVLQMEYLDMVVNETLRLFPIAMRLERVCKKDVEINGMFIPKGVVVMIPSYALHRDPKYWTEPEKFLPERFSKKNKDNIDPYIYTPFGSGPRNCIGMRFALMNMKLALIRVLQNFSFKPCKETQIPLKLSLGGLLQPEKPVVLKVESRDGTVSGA

hERG = hERG (Homo sapiens, UniProt Q12809); test: hERG binding
Chain of hERG (Q12809 whole entry): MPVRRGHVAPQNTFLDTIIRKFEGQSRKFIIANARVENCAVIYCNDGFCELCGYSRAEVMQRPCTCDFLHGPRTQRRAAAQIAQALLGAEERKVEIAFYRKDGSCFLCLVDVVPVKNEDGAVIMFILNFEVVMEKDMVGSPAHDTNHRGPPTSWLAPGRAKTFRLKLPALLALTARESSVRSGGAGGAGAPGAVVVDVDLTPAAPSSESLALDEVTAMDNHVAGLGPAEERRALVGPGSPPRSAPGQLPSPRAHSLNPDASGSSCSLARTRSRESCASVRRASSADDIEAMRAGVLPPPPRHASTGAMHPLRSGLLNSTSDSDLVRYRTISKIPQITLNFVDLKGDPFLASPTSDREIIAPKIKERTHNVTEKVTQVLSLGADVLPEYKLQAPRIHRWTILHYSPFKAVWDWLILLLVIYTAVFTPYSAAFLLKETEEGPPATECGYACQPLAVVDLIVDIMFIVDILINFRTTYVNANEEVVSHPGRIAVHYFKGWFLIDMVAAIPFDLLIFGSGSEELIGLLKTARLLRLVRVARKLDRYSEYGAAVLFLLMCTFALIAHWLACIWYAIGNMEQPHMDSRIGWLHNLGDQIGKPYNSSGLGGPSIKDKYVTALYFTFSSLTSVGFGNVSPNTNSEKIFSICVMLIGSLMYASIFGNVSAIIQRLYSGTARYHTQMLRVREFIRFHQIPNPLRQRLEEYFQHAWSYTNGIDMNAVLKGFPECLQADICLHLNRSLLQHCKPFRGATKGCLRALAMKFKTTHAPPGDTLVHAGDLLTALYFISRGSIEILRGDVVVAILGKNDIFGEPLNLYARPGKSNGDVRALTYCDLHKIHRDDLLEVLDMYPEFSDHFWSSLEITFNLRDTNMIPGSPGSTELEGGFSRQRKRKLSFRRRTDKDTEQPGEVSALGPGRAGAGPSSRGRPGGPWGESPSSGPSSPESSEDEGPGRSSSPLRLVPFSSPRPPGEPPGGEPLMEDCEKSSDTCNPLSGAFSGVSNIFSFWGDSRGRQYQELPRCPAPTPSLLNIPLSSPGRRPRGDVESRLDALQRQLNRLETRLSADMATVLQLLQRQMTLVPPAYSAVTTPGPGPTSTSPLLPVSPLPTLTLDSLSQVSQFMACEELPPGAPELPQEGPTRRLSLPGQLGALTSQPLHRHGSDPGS

[8] = Repeated dose 14-day toxicokinetics (TK) study; format: in vivo, Sprague–Dawley rats; conditions: for Cmax / half-life / AUC(0-inf) / AUC(0-t) / Tmax: Sprague-Dawley, rat, po, 100 mg/kg
human HDAC2 = human HDAC2 (Homo sapiens, UniProt Q92769); test: Isoform selectivity, recombinant HDAC isoforms; format: biochemical; conditions: single experiment assays
Chain of human HDAC2 (Q92769 whole entry, canonical isoform): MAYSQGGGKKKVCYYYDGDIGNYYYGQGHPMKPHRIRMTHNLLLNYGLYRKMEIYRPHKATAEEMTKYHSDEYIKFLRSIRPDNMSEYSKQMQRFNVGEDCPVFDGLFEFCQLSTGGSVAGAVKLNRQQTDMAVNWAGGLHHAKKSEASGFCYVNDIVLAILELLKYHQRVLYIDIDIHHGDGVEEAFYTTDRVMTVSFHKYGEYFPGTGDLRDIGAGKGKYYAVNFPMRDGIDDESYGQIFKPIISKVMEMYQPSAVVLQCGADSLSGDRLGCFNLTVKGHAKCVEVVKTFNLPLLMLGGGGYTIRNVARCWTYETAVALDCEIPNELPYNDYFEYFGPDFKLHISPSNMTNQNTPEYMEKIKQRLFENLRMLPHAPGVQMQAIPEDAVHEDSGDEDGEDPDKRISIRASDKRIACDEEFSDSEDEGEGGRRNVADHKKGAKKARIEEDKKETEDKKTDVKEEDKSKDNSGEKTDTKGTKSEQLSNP
Procedure: Isoform selectivity was tested using recombinant HDAC isoforms (Biomol, USA).

[9] = tested on: Dd2 DDD107498 (PfeEF2 Y186N); test: microbe, parasite or virus in culture; format: cell-based; conditions: Plasmodium falciparum
CYP 2D6 = CYP 2D6 (Homo sapiens, UniProt P10635); test: CYP inhibition; format: in vitro ADME
Chain of CYP 2D6 (P10635 whole entry, species assumed): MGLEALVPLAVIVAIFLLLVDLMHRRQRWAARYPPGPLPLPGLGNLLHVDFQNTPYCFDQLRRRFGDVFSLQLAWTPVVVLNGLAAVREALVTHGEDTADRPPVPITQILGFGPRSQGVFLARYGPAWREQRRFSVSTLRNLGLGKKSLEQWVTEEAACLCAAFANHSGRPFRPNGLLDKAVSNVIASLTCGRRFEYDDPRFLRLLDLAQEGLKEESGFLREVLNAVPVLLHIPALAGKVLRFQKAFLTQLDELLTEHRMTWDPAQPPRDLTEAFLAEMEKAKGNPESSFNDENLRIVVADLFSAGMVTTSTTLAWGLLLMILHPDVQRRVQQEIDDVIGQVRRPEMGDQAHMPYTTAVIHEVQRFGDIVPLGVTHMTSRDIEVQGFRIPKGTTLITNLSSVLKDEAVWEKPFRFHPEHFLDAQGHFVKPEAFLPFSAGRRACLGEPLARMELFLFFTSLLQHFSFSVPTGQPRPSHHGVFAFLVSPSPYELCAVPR

[10] = both sexes, in vivo, rats, 100 mg/kg body weight
[11] = female, in vivo, female, day 1, 100 mg/kg bw
[12] = female, in vivo, female, day 14, 100 mg/kg bw
[13] = male, in vivo, male, day 1, 100 mg/kg bw
[14] = male, in vivo, male, day 14, 100 mg/kg bw

In the case of `O=C(NO)c1ccc(Cn2cc(-c3ccc(CN4CCCC4)cc3)nn2)cc1` [FNDR-20123], the remaining at 4 h (in vitro [1]) is reported as 97.7%, the “Toxic effects on body weights and organ weights” value ([2]; 14-day oral, 50, 100 and 150 mg/kg body weight, male and female rats) is reported as “no adverse toxic effects on body weights and organ weights” and the “Adverse clinical signs or mortality” value ([2]; 14-day repeat dose oral gavage, both sexes) is reported as “did not reveal any adverse clinical signs or mortality”. For the same compound, the “Abnormality in body weight or gross organ pathology” value ([2]; 14-day, 100 mg/kg daily dose) was “did not show any abnormality in body weight or gross organ pathology”, the Fasting body weight ([2]; female, G2 50 mg/kg) was 149.51 g and the Body weight ([2]; female, G2 50 mg/kg bw, day 1) was 146.45 g. It also gave a Body weight ([2]; female, G2 50 mg/kg bw, day 7) of 150.70 g, a Body weight ([2]; female, G2 50 mg/kg bw, day 14) of 161.49 g and a Body weight ([2]; female, G3 100 mg/kg bw, day 1) of 146.70 g. For the same compound, the Body weight ([2]; female, G3 100 mg/kg bw, day 7) was 145.63 g, the Body weight ([2]; female, G3 100 mg/kg bw, day 14) was 158.43 g and the Fasting body weight ([2]; female, G4 150 mg/kg) was 134.25 g. It also gave a Body weight ([2]; female, G4 150 mg/kg bw, day 7) of 139.82 g, a Body weight ([2]; female, G4 150 mg/kg bw, day 14) of 142.91 g and a Fasting body weight ([2]; male, G2 50 mg/kg) of 189.75 g. The Body weight ([2]; male, G2 50 mg/kg bw, day 1) was 166.04 g, the Body weight ([2]; male, G2 50 mg/kg bw, day 7) was 190.40 g and the Body weight ([2]; male, G2 50 mg/kg bw, day 14) was 209.30 g. For the same compound, the Fasting body weight ([2]; male, G3 100 mg/kg) was 163.82 g, the Body weight ([2]; male, G3 100 mg/kg bw, day 1) was 166.39 g and the Body weight ([2]; male, G3 100 mg/kg bw, day 7) was 173.72 g. For the same compound, the Body weight ([2]; male, G3 100 mg/kg bw, day 14) was 177.16 g, the Fasting body weight ([2]; male, G4 150 mg/kg) was 174.95 g and the Body weight ([2]; male, G4 150 mg/kg bw, day 1) was 170.86 g. The Body weight ([2]; male, G4 150 mg/kg bw, day 7) was 180.10 g, the Body weight ([2]; male, G4 150 mg/kg bw, day 14) was 188.27 g and the “Human HDAC % inhibition @1μM” value ([3]; 1μM) was 95%. For the same compound, the IC50 ([3]; HeLa nuclear extract, read-out: Human HDAC IC50) was 3 nM, the IC50 ([3]; single experiment assays, read-out: IC50 HeLa nuclear extract) was 3 nM and the IC50 (PfHDAC1) was 31 nM. It also gave an IC50 [4] of over 25 µM, an IC50 (CYP2C19) of over 60 µM and an IC50 (CYP1A2) of over 60 µM. The “Microsomal stability (% remaining at 120 min)” value (Microsomal stability) was 85.31%, the remaining at 2 h, 10 µM (Microsomal stability; human, liver microsomes, read-out: Microsomal stability (% remaining at 120 min)) was over 75% and the fraction unbound (Plasma protein binding [5]) was 0.581. It also gave an IC50 (male gametocytes) of 190 nM, a fraction unbound (Plasma protein binding [6]) of over 0.7 and a remaining at 4 h (in vitro [7]) of 89.2%. The IC50 (CYP 3A4) was 27 µM, the IC50 (hERG) was over 100 µM and the “Accumulation (toxicokinetic profile)” value ([8]; 100 mg/kg bw oral gavage, 14 days) was “no accumulation”. It also gave a Cmax [8, 10] of 1100 nM, a half-life [8, 10] of 330 min and a half-life ([8]; female, blood, female, day 1, 100 mg/kg bw) of 193 ± 24.6 min. The AUC(0-inf) [8, 11] was 448 ± 113 ng·h/mL, the AUC(0-t) [8, 11] was 345 ± 71.6 ng·h/mL and the Cmax [8, 11] was 229 ± 69.3 ng/mL. It also gave a Tmax [8, 11] of 16.8 ± 12.6 min, an AUC(0-inf) [8, 12] of 573 ± 23.1 ng·h/mL and an AUC(0-t) [8, 12] of 480 ± 49.7 ng·h/mL. It also gave a Cmax [8, 12] of 207 ± 36.1 ng/mL, a Tmax [8, 12] of 8.4 ± 6 min and a half-life ([8]; male, blood, male, day 1, 100 mg/kg bw) of 343 ± 246 min. It also gave a half-life ([8]; male, blood, male, day 14, 100 mg/kg bw) of 138 ± 33 min, an AUC(0-inf) [8, 13] of 1280 ± 282 ng·h/mL and an AUC(0-t) [8, 13] of 712 ± 234 ng·h/mL. It also gave a Cmax [8, 13] of 420 ± 174 ng/mL, a Tmax [8, 13] of 19.8 ± 8.4 min and an AUC(0-inf) [8, 14] of 1080 ± 216 ng·h/mL. The AUC(0-t) [8, 14] was 957 ± 181 ng·h/mL, the Cmax [8, 14] was 703 ± 362 ng/mL and the Tmax [8, 14] was 11.4 ± 6 min. The IC50 (human HDAC2) was 29 nM, the IC50 [9] was 20.9 nM and the IC50 (CYP 2D6) was 28 µM.
